The values below come from US20240041038A1 (priority 2020, published 2024).

Bridges are numbered along the chain shown (N, C = ends). Where no end group is shown, it is not given here.

Data set [1] has as its system corn earworm (Helicoverpa zea). As to conditions: in vivo.
In data set [2] the test system is corn earworm (Helicoverpa zea). As to conditions: in vivo. This is another data set of the same source.
In data set [3] the test system is lesser mealworm (Alphitobius diaperinus). As to the kind of experiment: whole plant or invertebrate. As to conditions: 96 h, read-out: mortality rate.
Data set [4] relates to beet armyworm (Spodoptera exigua). As to conditions: in vivo.

`C/C=C(\C)C(=O)O[C@H]1C[C@@H](OC(C)=O)[C@@]2(C(=O)OC)CO[C@H]3[C@@H](O)[C@@](C)([C@]45O[C@@]4(C)[C@H]4C[C@@H]5O[C@@H]5OC=C[C@@]54O)[C@H]4[C@]1(CO[C@]4(O)C(=O)OC)[C@@H]32` [Azadirachtin] gave a mortality in data set [1] of 37.5%. On to `O=C(NC(=O)c1c(F)cccc1F)Nc1ccc(OC(F)(F)C(F)OC(F)(F)F)c(Cl)c1` (centres unmarked) [Novaluron], for which the “greater than additive insecticidal effect when combined with U+2-ACTX-Hv1a” value in data set [2] is “Novaluron*”. With `OB(O)O` [boric acid], the mortality at 2500 µg/mL in data set [3] turned out to be 10.3%. With “GSCADINGACKSDCDCCGDSVTCDCYWSDSCKCRESNFKIGMAIRKKFC (disulfide 3-17, 10-23, 14-49, 16-33, 25-31) [Γ-CNTX-Pn1a]”, in data set [4], the mortality came out at 6% and the mortality rate is reported as 3%.
